From patent US5612480A, “2-chloro and 2-bromo derivatives of 1,5-iminosugars” (priority 1995, dated 1997)
Values after ≈ are worked out from the molar mass of the structure shown. Read-outs that look alike come from different tables or passages of the source.

Columns and labels:
visna virus = assay: Inhibition of visna virus growth, plaque reduction assay in sheep choroid plexus (SCP) cells (Method A); format: cell-based
Text: Inhibitory activity against visna virus was shown by a conventional plaque reduction assay. Visna virus, a lentivirus genetically very similar to the AIDS virus, is pathogenic for sheep and goats. See Sonigo et al., Cell 42, 369-382 (1985); Haase, Nature 322, 130-136 (1986). Inhibition of visna virus replication in vitro as a useful model for HIV and its inhibition by test compounds has been described by Frank et al., Antimicrobial Agents and Chemotherapy 31 (9), 1369-1374 (1987).
(§1) Various illustrative compounds synthesized above were tested for inhibition of visna virus in vitro in a plaque reduction assay (Method A) or for inhibition of HIV-1 in a test which measured reduction of cyto-pathogenic effect in virus-infected syncytium-sensitive Leu-3a-positive CEM cells grown in tissue culture (Method B) as follows:
Sheep choroid plexus (SCP) cells were obtained from American Type Culture Collection (ATCC) catalogue number CRL 1700 and were routinely passaged in vitro in Dulbecco's Modified Eagles (DME) medium supplemented with 20% fetal bovine serum (FBS). SCP cells were passaged once per week at a 1:2 or 1:3 split ratio. Visna was titrated by plaque assay in six-well plates. Virus pools were stored at -70° C.
SCP cells were cultured in 6-well plates to confluence. Wells were washed two times with serum free Minimal Essential Medium (MEM) to remove FBS. 0.2 ml of virus was added per well in MEM supplemented with 4 mM glutamine and gentamycin. After 1 hour adsorption, the virus was aspirated from each well. The appropriate concentration of each compound in 5 ml of Medium 199 (M-199) supplemented with 2% lamb serum, 4 mM glutamine, 0.5% agarose and gentamycin was added to each well. Cultures were incubated at 37° C. in a humidified 5% CO2 incubator for 3-4 weeks. To terminate the test, cultures were fixed in 10% formalin, the agar removed, the monolayers stained with 1% crystal violet and plaques counted. Each compound concentration was run in triplicate. […] 0 is no toxicity observed while 4 is total lysing of the cell monolayer. […]
Control wells without virus were completed to determine the toxicity of compounds.

HIV-1 = assay: Anti-HIV activity: inhibition of HIV-1 induced cytopathic effect in CEM cells, MTT (Method B); format: cell-based, strain HTVL-IIIB; conditions: Human immunodeficiency virus 1, CCRF-CEM, CEM cells, Table 2
Description: Inhibitory activity against HIV-1 was shown by tests involving plating of susceptible human host cells which are syncytium-sensitive with and without virus in microculture plates, adding various concentrations of the test compound, incubating the plates for 7 to 9 days (during which time infected, non-drug treated control cells are largely or totally destroyed by the virus), and then determining the remaining number of viable cells with a colorometric endpoint.
as §1
Tissue culture plates were incubated at 37° C. in a humidified, 5% CO2 atmosphere and observed microscopically for toxicity and/or cytopathogenic effect (CPE). At 1 hour prior to infection each test article was prepared from the frozen stock, and a 20 μl volume of each dilution (prepared as a 10 X concentration) was added to the appropriate wells of both infected and uninfected cells.
Assays were done in 96-well tissue culture plates. CEM cells were treated with polybrene at a concentration of 2 μg/ml, and an 80 μl volume of cells (1×10^4 cells) was dispensed into each well. A 100 μl volume of each test article dilution (prepared as a 2 X concentration) was added to 5 wells of cells, and the cells were incubated at 37° C. for 1 hour. A frozen culture of HIV-1, strain HTVL-IIIB, was diluted in culture medium to a concentration of 5×10^4 TCID50 per ml, and a 20 μl volume (containing 10^3 TCID50 of virus) was added to 3 of the wells for each test article concentration. […] A 20 μl volume of normal culture medium was added to the remaining wells to allow evaluation of cytotoxicity. Each plate contained 6 wells of untreated, uninfected, cell control samples and 6 wells of untreated, infected, virus control samples.
On the 9th day post-infection, the cells in each well were resuspended and a 100 μl sample of each cell suspension was removed for use in an MTT assay. A 20 μl volume of a 5 mg/ml solution of 3-(4,5-dimethylthiazol-2-yl)-2,5-diphenyltetrazolium bromide (MTT) was added to each 100 μl cell suspension, and the cells were incubated at 37° C. in 5% CO2 for 4 hours. […] A 100 μl volume of a solution of 10% sodium dodecyl sulfate in 0.01 N hydrochloric acid was added to each sample, and the samples were incubated overnight. The absorbance at 590 nm was determined for each sample using a Molecular Devices Vmax microplate reader. This assay detects drug-induced suppression of viral CPE, as well as drug cytotoxicity, by measuring the generation of MTT-formazan by surviving cells.

α-Glucosidase (yeast) = biological target: T1, α-Glucosidase (yeast) (Saccharomyces cerevisiae, UniProt P53341); assay: Alpha-glucosidase (yeast) inhibition assay, pH 7.4; format: biochemical
T1 construct: purchased Sigma
T1 sequence (P53341 whole entry): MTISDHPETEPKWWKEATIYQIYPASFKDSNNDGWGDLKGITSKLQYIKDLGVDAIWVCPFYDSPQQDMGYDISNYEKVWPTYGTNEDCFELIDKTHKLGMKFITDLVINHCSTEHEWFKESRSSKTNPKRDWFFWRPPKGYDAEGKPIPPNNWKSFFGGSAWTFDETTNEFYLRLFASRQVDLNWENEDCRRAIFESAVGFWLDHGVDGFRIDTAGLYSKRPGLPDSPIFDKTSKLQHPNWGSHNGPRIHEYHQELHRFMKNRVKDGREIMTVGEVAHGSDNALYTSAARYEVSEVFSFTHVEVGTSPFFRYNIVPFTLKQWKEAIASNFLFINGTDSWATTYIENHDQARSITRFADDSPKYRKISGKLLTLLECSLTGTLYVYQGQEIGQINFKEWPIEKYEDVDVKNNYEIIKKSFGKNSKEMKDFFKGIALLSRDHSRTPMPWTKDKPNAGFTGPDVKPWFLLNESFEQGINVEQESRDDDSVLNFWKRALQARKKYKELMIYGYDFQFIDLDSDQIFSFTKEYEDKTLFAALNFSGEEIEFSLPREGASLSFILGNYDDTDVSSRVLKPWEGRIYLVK
Description: (§2) Yeast alpha-glucosidase and almond beta-glucosidase activities were measured by a modification of the method of Evans, et al., Phytochemistry 22, 768-770 (1983). The modifications included (1) assay of activities at pH 7.4 in HEPES (N-2-hydroxyethylpiperazine-N'-2-ethanesulfonic acid) buffer, 2) measurement in 96 well microtiter plates and (3) inclusion of 10% DMSO in control and test samples.
(§3) The release of p-nitrophenol from the substrate p-nitrophenylglycoside was measured spectrophotometrically in the presence and absence of test compound. Each assay included a known inhibitor of the enzyme as a standard. IC50 values were determined for compounds which inhibited the enzymes more than 50% at a 1 millimolar concentration.
(§4) To 100 μl 50 mM HEPES buffer, pH 7.4, in a microtiter plate, add 20 μl test compound in DMSO (DMSO alone in control), 40 μl (0.013 units) yeast alpha-glucosidase (Sigma) in HEPES buffer and pre-incubate at room temperature for 15 minutes. Add 40 μl 1.25 mM p-nitrophenyl-alpha-D-glucopyranoside (Sigma) in HEPES buffer, as substrate, and monitor absorbance change at 405 nm in a Biotek EIA Autoreader. Absorption change was measured at 15 to 25 minutes (reaction was linear for at least 30 minutes). Each sample was tested in triplicate. IC50 values were determined from the linear portion of the log concentration vs % inhibition curve obtained from a minimum of 3 points. Deoxynojirimycin was used as standard inhibitor.

β-Glucosidase (almond) [1] = assay: Beta-glucosidase (almond) inhibition assay, pH 7.4; format: biochemical
Description: as §2, §3
as §4, with “μl (0.136” for “μl (0.013”, “units) beta-glucosidase” for “units) yeast alpha-glucosidase”, “mM p-nitrophenyl-beta-D-glucopyranoside” for “mM p-nitrophenyl-alpha-D-glucopyranoside (Sigma)”, “as substrate” for “as substrate,”, “(reaction is” for “(reaction was”, “points. Castanospermine” for “points. Deoxynojirimycin”

β-Glucosidase (almond) [2] = assay: Beta-glucosidase (almond) inhibitor assay, pH 4.8; format: biochemical
Description: as §2, §3
To 100 μl 50 mM sodium citrate buffer, pH 4.8, in a microtiter plate, add 15 μl test compound in DMSO (DMSO alone in control), 20 μl (0.017 units) beta-glucosidase (Sigma) in citrate buffer and pre-incubate at room temperature for 15 minutes. Add 25 μl 2.50 mM p-nitrophenyl-beta-D-glucopyranoside in citrate buffer, as substrate. Incubate at room temperature 20 minutes (reaction is linear for at least 30 minutes). Add 50 μl 0.4 M NaOH. Read absorption change at 405 nm in a Biotek EIA Autoreader. Each sample was tested in triplicate. IC50 values were determined from the linear portion of the log concentration vs % inhibition curve obtained from a minimum of 3 points. Castanospermine was used as standard inhibitor.

[3] = pH 7.4, read-out: Percent inhibition of α-glucosidase (yeast)
[4] = 100 μM, pH 7.4, read-out: Percent inhibition of α-glucosidase (yeast)
[5] = 1000 μM, pH 7.4, read-out: Percent inhibition of α-glucosidase (yeast)

SMILES | % inhibition of visna virus growth (visna virus; 0.001 mM) [%] | % inhibition of visna virus growth (visna virus; 0.01 mM) [%] | % inhibition of visna virus growth (visna virus; 0.1 mM) [%] | % inhibition of visna virus growth (visna virus; 1.0 mM) [%] | EC50 (HIV-1; read-out: Anti-HIV activity, inhibition of virus induced cytopathic effect, EC50) [µg/mL] | inhibition at 1 µM (α-Glucosidase (yeast); [3]) [%] | inhibition at 10 µM (α-Glucosidase (yeast); [3]) [%] | inhibition at 100 µM (α-Glucosidase (yeast); [3]) [%] | inhibition at 1000 µM (α-Glucosidase (yeast); [3]) [%] | Percent inhibition of β-glucosidase (almond) (β-Glucosidase (almond) [1]; 100 μM) [%] | Percent inhibition of β-glucosidase (almond) (β-Glucosidase (almond) [1]; 1000 μM) [%] | Percent inhibition of β-glucosidase (almond) (β-Glucosidase (almond) [2]; 100 μM) [%] | Percent inhibition of β-glucosidase (almond) (β-Glucosidase (almond) [2]; 1000 μM) [%] | inhibition at 1000 µM (visna virus; Visna-maedi virus, 1.0 mM) [%] | inhibition at 100 µM (α-Glucosidase (yeast); [4]) [%] | inhibition at 1000 µM (α-Glucosidase (yeast); [5]) [%] | inhibition at 500 µg/mL (HIV-1; 500 μg/mL, read-out: Anti-HIV activity, % inhibition of virus induced cytopathic effect) [%]
CCCCCCN1C[C@H](Cl)[C@@H](O)[C@H](O)[C@H]1CO [Example 28, 2-Chloro-1,2,5-trideoxy-1,5(hexylimino)-D-glucitol] | 6 | 61 | 100 | 100 | 11 (≈ 41.4 µM) | 4 | 37.6 | 82.9 | 95.5 | 62.9 | 90 | 43.7 | 84 | – | – | – | –
OC[C@@H]1[C@@H](O)[C@H](O)[C@@H](Cl)CN1CCCc1ccccc1 [Example 30, 2-Chloro-1,2,5-trideoxy-1,5-(3-phenyl)propylimino-D-glucitol] | 20 | 57 | 97 | 100 | – | 4.6 | 46.4 | 87.3 | 97.5 | 66.2 | 92.5 | 47.6 | 84.7 | – | – | – | –
CCCCNC(=O)O[C@H]1CN(CCCC)[C@H](CO)[C@@H](O)[C@@H]1O [Example 36] | – | – | – | – | – | – | – | – | – | -2.4 | 0.3 | 4.3 | 3.1 | 21 | 11 | -6.8 | –
CCCCN1[C@H](CO)[C@@H](O)[C@H](O)[C@H]1CN=[N+]=[N-] [Example 47, 1-Azido-2,5-(butylimino)-1,2,5-trideoxy-D-mannitol] | – | – | – | – | – | – | – | – | – | -4.1 | 6.7 | 11.2 | 32.6 | – | 22.7 | 24.8 | 36
CCCCCCCCCN1C[C@H](Cl)[C@@H](O)[C@H](O)[C@H]1CO [Example 29, 2-Chloro-1,2,5-trideoxy-1,5-(nonylimino)-D-glucitol] | 23 | 53 | 100 | – | – | 11.5 | 61.5 | 91.8 | 102 | 54.7 | 91.9 | 33.1 | 52.8 | – | – | – | –
